Assays:
[1] = test system: Schizosaccharomyces pombe; assay: Filter disc assay on a lawn of S. pombe; format: cell-based; conditions: for bioactivity against S. pombe (haloes/zones of inhibition), relative: zinc complexed versus zinc-free form, tested in parallel
Protocol: The silica powder with the S149 compound adsorbed onto it was divided into two equal portions of ˜7.5 g and each portion was used in normal phase “flash” chromatography using a Biotage™ Isolera™ machine and a Biotage™ KP-Sil 50 g column. A chloroform-methanol gradient was used to elute the bound material from the silica in which the percentage of methanol went from 0%-100%. No formic acid was added to the solvents as this degrades the bioactive compound. The eluate from the column was fractionated and the presence of the bioactive compound (S149) determined using the “Filter disc assay” method as described in the “Materials and Methods” of Lewis et al., 2017. The active fractions eluted from the two normal phase chromatography columns were pooled, and after removal of the solvent using a GeneVac™ Series U system equipped with a GeneVac™ VC3000TA condenser unit, the dried material was resuspended in 5 ml of methanol which was loaded onto a size exclusion column. The column was run at a flow rate of 1 ml/min with 1,200 ml of methanol and the eluate fractionated. The bioactive fractions, as determined using the “Filter disc assay” method as described in the “Materials and Methods” of Lewis et al., 2017, were pooled to give ˜15 ml of material which was diluted with 60 ml of water to give 75 ml of a 20% methanol solution. This was used in reverse phase chromatography using a Biotage™ Isolera™ chromatography machine in which the bioactive material was loaded by injection onto a C18 SNAP Ultra 12 g Biotage™ column and eluted using an acetonitrile-water gradient where the percentage of acetonitrile was increased from 20%-100%.
An example of the u.v. absorbance pattern (λ=254 nm) is shown in FIG. 1 and indicates the presence of four peaks labelled 0-3. An integrated fraction collector was used to peak-pick material and collect column eluate corresponding to the peaks which were then bioassayed using the “Filter disc assay” method as described in the “Materials and Methods” of Lewis el al., 2017.

[2] = molecular target: forkhead transcription factor, Foxo3a (Homo sapiens, UniProt O43524); conditions: published by Kawahara et al., 2015; cited from earlier work
Chain of forkhead transcription factor, Foxo3a (O43524 whole entry): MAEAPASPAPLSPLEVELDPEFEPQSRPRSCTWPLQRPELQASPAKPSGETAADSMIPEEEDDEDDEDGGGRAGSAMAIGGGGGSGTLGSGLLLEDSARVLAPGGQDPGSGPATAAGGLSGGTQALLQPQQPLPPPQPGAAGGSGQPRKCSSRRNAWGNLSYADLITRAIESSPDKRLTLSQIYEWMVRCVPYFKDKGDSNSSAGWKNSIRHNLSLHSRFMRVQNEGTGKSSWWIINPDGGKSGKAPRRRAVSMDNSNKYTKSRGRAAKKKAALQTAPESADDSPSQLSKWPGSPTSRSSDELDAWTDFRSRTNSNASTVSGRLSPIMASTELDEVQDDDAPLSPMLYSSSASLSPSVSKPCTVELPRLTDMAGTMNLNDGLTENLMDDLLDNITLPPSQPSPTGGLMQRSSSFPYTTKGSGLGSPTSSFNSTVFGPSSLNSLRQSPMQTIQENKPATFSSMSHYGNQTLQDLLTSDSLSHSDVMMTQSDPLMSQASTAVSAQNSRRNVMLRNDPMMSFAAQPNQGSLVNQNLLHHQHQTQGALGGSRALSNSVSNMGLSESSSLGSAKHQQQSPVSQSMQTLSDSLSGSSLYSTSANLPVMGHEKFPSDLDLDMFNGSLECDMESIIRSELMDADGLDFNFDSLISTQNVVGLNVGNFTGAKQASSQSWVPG

Structure (SMILES)	time for haloes in the S. pombe lawn around impregnated discs to develop ([1]; filter discs impregnated with HPLC peak material)	bioactivity against S. pombe (haloes/zones of inhibition), relative [1]	bioactivity against S. pombe (haloes/zones of inhibition), relative ([1]; listed as JBIR 141)	bioactivity against S. pombe (haloes/zones of inhibition), relative ([1]; listed as Peak 0)	inhibition of the transcriptional activity of Foxo3a [2]
CC(=O)O[C@@H]([C@H](CCCN(O)N=O)NC(=O)[C@H]1N=C([C@H](C)N(C)C)O[C@@H]1C)C(C)(C)C(=O)O[C@H](C(=O)C1=C(O)[C@H](C)N(C)C1=O)C(C)C [JBIR-141]	~48 h	not as bioactive as the zinc complexed form	not as bioactive as the zinc complexed form	lower than the bioactivity of the material from the other peaks	possess the ability to inhibit the transcriptional activity
CC(=O)O[C@@H]([C@H](C[C@@H](O)CN(O)N=O)NC(=O)[C@H]1N=C([C@H](C)N(C)C)O[C@@H]1C)C(C)(C)C(=O)O[C@H](C(=O)C1=C(O)[C@H](C)N(C)C1=O)C(C)C [JBIR-142]	–	–	–	–	possess the ability to inhibit the transcriptional activity
